From EPA's ToxValDB 9.5

Tests used:
Rattus norvegicus [1] = conditions: for NEL: Blood: Hematology
Rattus norvegicus [2] = conditions: Hershberger; duration: 10 days; oral; gavage; Sprague-Dawley; inactive + Negative + Negative + neither + negative
Mus musculus = conditions: chronic; duration: 50 weeks; oral; drinking water; F; Swiss; body weight
[3] = reproduction developmental, oral, gavage, F, Wistar, generation: F1, F1: body weight + F1: kidney: absolute kidney weight + F1: kidney: relative kidney weight + F1: liver: absolute liver weight + F1: liver: …
[4] = reproduction developmental, oral, gavage, F, Wistar, generation: P0, P0: body weight + P0: developmental toxicity
[5] = reproduction developmental, oral, gavage, M, Wistar, generation: F1, F1: body weight + F1: paternal toxicity
[6] = reproduction developmental, oral, gavage, M, Wistar, generation: P0, P0: body weight + P0: developmental toxicity

CC(C)(c1ccc(OP(=O)(Oc2ccccc2)Oc2ccccc2)cc1)c1ccc(OP(=O)(Oc2ccccc2)Oc2ccccc2)cc1 [2,2-Bis[4-[bis(phenoxy)phosphoryloxy]phenyl]propane]
NOEL (Rattus norvegicus [1]; acute, duration: 14 days, oral, gavage, F, Crl:CD(SD), body weight gain + toxicity): 2000 mg/kg-day | NOEL (Rattus norvegicus [1]; developmental, oral, Sprague-Dawley, generation: F1, F1: embryotoxicity): 1000 mg/kg-day | NOEL (Rattus norvegicus [1]; developmental, oral, gavage, Crl:CD(SD), generation: F1, F1: embryotoxicity): 1000 mg/kg-day | NOEL (Rattus norvegicus [1]; reproduction developmental, oral, F, Sprague-Dawley, generation: P0, P0: maternal toxicity): 1000 mg/kg-day | NOEL (Rattus norvegicus [1]; reproduction developmental, oral, gavage, Crl:CD(SD), generation: F1, F1: fetotoxicity): 1000 mg/kg-day | NOEL (Rattus norvegicus [1]; reproduction developmental, oral, gavage, Crl:CD(SD), generation: F1, F1: toxicity): 1000 mg/kg-day | NOEL (Rattus norvegicus [1]; reproduction developmental, oral, gavage, F, Crl:CD(SD), generation: P0, P0: body weight + P0: maternal toxicity): 1000 mg/kg-day | NOEL (Rattus norvegicus [1]; reproduction developmental, oral, gavage, F, Crl:CD(SD), generation: P0, P0: body weight gain + P0: maternal toxicity + P0: uterus: gravid uterine weight): 500 mg/kg-day | NOEL (Rattus norvegicus [1]; reproduction developmental, oral, gavage, F, Crl:CD(SD), generation: P0, P0: body weight gain + P0: ovary: ovary weight + P0: toxicity): 100 mg/kg-day | NOEL (Rattus norvegicus [1]; reproduction developmental, oral, gavage, F, Crl:CD(SD), generation: P0, P0: body weight gain + P0: toxicity): 1000 mg/kg-day | NOEL (Rattus norvegicus [1]; reproduction developmental, oral, gavage, F, Crl:CD(SD), generation: P0, P0: body weight gain + P0: uterus: Gravid uterus weight): 1000 mg/kg-day | NOEL (Rattus norvegicus [1]; reproduction developmental, oral, gavage, F, Crl:CD(SD), generation: P0, P0: toxicity): 1000 mg/kg-day | LOEL (Rattus norvegicus [1]; [3]): 200 mg/kg-day | NOEL (Rattus norvegicus [1]; [3]): 100 mg/kg-day | NOEL (Rattus norvegicus [1]; reproduction developmental, oral, gavage, F, Wistar, generation: F1, F1: toxicity): 1000 mg/kg-day | LOEL (Rattus norvegicus [1]; [4]): 200 mg/kg-day | NOEL (Rattus norvegicus [1]; [4]): 100 mg/kg-day | NOEL (Rattus norvegicus [1]; reproduction developmental, oral, gavage, F, Wistar, generation: P0, P0: maternal toxicity): 1000 mg/kg-day | NOEL (Rattus norvegicus [1]; reproduction developmental, oral, gavage, F, Wistar, generation: P0, P0: toxicity): 1000 mg/kg-day | NOEL (Rattus norvegicus [1]; reproduction developmental, oral, gavage, M/F, Crl:CD(SD), generation: F1, F1: body weight + F1: toxicity): 1000 mg/kg-day | NOEL (Rattus norvegicus [1]; reproduction developmental, oral, gavage, M, Crl:CD(SD), generation: P0, P0: body weight gain + P0: kidney: kidney: absolute weight + P0: spleen: spleen weight + P0: toxicity): 1000 mg/kg-day | LOEL (Rattus norvegicus [1]; [5]): 200 mg/kg-day | NOEL (Rattus norvegicus [1]; [5]): 100 mg/kg-day | NOEL (Rattus norvegicus [1]; reproduction developmental, oral, gavage, M, Wistar, generation: F1, F1: toxicity): 1000 mg/kg-day | LOEL (Rattus norvegicus [1]; [6]): 200 mg/kg-day | NOEL (Rattus norvegicus [1]; [6]): 100 mg/kg-day | NOEL (Rattus norvegicus [1]; reproduction developmental, oral, gavage, M, Wistar, generation: P0, P0: toxicity): 1000 mg/kg-day | NOEL (Rattus norvegicus [1]; reproduction developmental, oral, gavage, Wistar, generation: F1, F1: developmental toxicity): 1000 mg/kg-day | NOEL (Rattus norvegicus [1]; short-term, duration: 28 days, oral, diet, M, Sprague-Dawley, toxicity): 1860 mg/kg-day | NOEL (Rattus norvegicus [1]; short-term, duration: 28 days, oral, gavage, F, Sprague-Dawley, body weight + toxicity): 1000 mg/kg-day | NOEL (Rattus norvegicus [1]; short-term, duration: 28 days, oral, gavage, F, Sprague-Dawley, liver: absolute liver weight + ovary: ovary weight + toxicity): 1000 mg/kg-day | NOEL (Rattus norvegicus [1]; short-term, duration: 28 days, oral, gavage, F, Sprague-Dawley, toxicity): 1000 mg/kg-day | NOEL (Rattus norvegicus [1]; short-term, duration: 28 days, oral, gavage, M, Sprague-Dawley, body weight + toxicity): 1000 mg/kg-day | NOEL (Rattus norvegicus [1]; short-term, duration: 28 days, oral, gavage, M, Sprague-Dawley, toxicity): 1000 mg/kg-day | NOEL (Rattus norvegicus [1]; short-term, oral, gavage, F, Sprague-Dawley, toxicity): 1000 mg/kg-day | NOEL (Rattus norvegicus [1]; short-term, oral, gavage, M, Sprague-Dawley, toxicity): 1000 mg/kg-day | NOEL (Rattus norvegicus [1]; subchronic, duration: 90 days, oral, gavage, F, Crj:CD, body weight + toxicity): 1000 mg/kg-day | NOEL (Rattus norvegicus [1]; subchronic, duration: 90 days, oral, gavage, F, Sprague-Dawley, body weight + toxicity): 1000 mg/kg-day | NOEL (Rattus norvegicus [1]; subchronic, duration: 90 days, oral, gavage, M, Crj:CD, body weight + toxicity): 1000 mg/kg-day | NOEL (Rattus norvegicus [1]; subchronic, duration: 90 days, oral, gavage, M, Sprague-Dawley, body weight + toxicity): 1000 mg/kg-day | NOEL (Rattus norvegicus [1]; subchronic, oral, gavage, F, Sprague-Dawley, toxicity): 1000 mg/kg-day | NOEL (Rattus norvegicus [1]; subchronic, oral, gavage, M, Sprague-Dawley, toxicity): 1000 mg/kg-day

CC(C)[C@H](C(=O)O[C@H](C#N)c1cccc(Oc2ccccc2)c1)c1ccc(Cl)cc1 [Esfenvalerate]
NOEL (Rattus norvegicus [2]): 9 mg/kg-day

FC(F)(F)N1C(F)(F)C(F)(F)OC(F)(F)C1(F)F [Perfluoro(N-methylmorpholine)]
NEL (Rattus norvegicus [1]; subchronic, duration: 13 weeks, inhalation, M/F, Sprague-Dawley, Unspecified + Eye: Ophthalmology, Unspecified + Multi-organ: Clinical Chemistry, Unspecified + Multi-organ: …): 607000 mg/m3 | NEL (Rattus norvegicus [1]; subchronic, duration: 30 days, oral, gavage, M/F, Crl:CD(SD) BR, Unspecified + Blood: Red Cell Morphology + Multi-organ: Clinical Chemistry, Unspecified + Multi-organ: Histopathology, …): 2000 mg/kg-day

O=[N+]([O-])c1ccc(O)c([N+](=O)[O-])c1 [2,4-Dinitrophenol]
LOAEL (Mus musculus): 0.07 mg/kg-day
